Our source for the IC50 values is patent US20250186437A1, “CARBOLINE COMPOUNDS AND USE THEREOF” (PTC Therapeutics, Inc., priority 2021, published 2025).

Usually IC50 stands for the point on the concentration scale where inhibition reaches its midpoint. Read a high IC50 as weaker potency in that assay.

For this test, the system named is MOLM-13 cells. The experiment in a line: MOLM-13 Cell Proliferation Assay (indicator of DHODH inhibition). It counts as cell-based. Particulars: Homo sapiens, 72 Hours of culture, CellTiter-Glo, no uridine. In short, it runs like this: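 Low-passage MOLM-13 cells (10^4/well) in RPMI 1640 + 10% FBS exposed to compound (0.5% DMSO final) for 72 h at 37 °C, 5% CO2. Viability read by CellTiter-Glo luminescence; growth reflects de novo pyrimidine synthesis dependent on DHODH.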
In general terms: Cellular ATP, detected with luciferase, serves as a proxy for viable cell number.

Compound `Nc1ncc(C2c3[nH]c4ccc(Cl)c(F)c4c3CCN2c2ncc(F)cn2)cn1` (stereo not shown) [Compound 212, 5-[6-chloro-5-fluoro-2-(5-fluoropyrimidin-2-yl)-2,3,4,9-tetrahydro-1H-pyrido[3,4-b]indol-1-yl]pyrimidin-2-amine] showed an IC50 of 71 nM.

In turn, `Cc1ccc([C@H]2c3[nH]c4ccc(Cl)cc4c3CCN2c2ncnc(C#N)n2)cc1` [Compound 399, 4-[(1S)-6-chloro-1-(4-methylphenyl)-1,3,4,9-tetrahydro-2H-pyrido[3,4-b]indol-2-yl]-1,3,5-triazine-2-carbonitrile] displayed a concentration for half-maximal inhibition (IC50) of 11.2 nM. `CN1CCN(c2ncc([C@H]3c4[nH]c5ccc(Cl)cc5c4CCN3c3nc(N4CCN(C)CC4)nc(C(F)(F)F)n3)cn2)CC1` [Compound 479, (1S)-6-chloro-1-[2-(4-methylpiperazin-1-yl)pyrimidin-5-yl]-2-[4-(4-methylpiperazin-1-yl)-6-(trifluoromethyl)-1,3,5-triazin-2-yl]-2,3,4,9-tetrahydro-1H-pyrido[3,4-b]indole] came in with an IC50 of 66.1 nM.

As for `Cc1ccc([C@H]2c3[nH]c4ccc(Cl)cc4c3CCN2c2nc(C)c(F)c(C#N)n2)cc1` [Compound 417, 2-[(1S)-6-chloro-1-(4-methylphenyl)-1,3,4,9-tetrahydro-2H-pyrido[3,4-b]indol-2-yl]-5-fluoro-6-methylpyrimidine-4-carbonitrile], 1.9 nM corresponded to half-maximal inhibition (IC50). The result for `Cc1cc(C)nc(N2CCc3c([nH]c4cc(F)c(Cl)cc34)C2c2ccc(CCCCO)cc2)n1` (stereo not shown) [Compound 245, 4-{4-[6-chloro-2-(4,6-dimethylpyrimidin-2-yl)-7-fluoro-2,3,4,9-tetrahydro-1H-pyrido[3,4-b]indol-1-yl]phenyl}butan-1-ol] reads 3.6 nM; that for `Oc1cccc(C2c3[nH]c4ccc(Cl)cc4c3CCN2c2nccc(C(F)(F)F)n2)c1F` (stereo not shown) [Compound 256, 3-{6-chloro-2-[4-(trifluoromethyl)pyrimidin-2-yl]-2,3,4,9-tetrahydro-1H-pyrido[3,4-b]indol-1-yl}-2-fluorophenol], 3.6 nM. The result for `Cc1ccc(C2c3[nH]c4ccc(Cl)cc4c3CCN2c2nccc(N(C)C)n2)c(F)c1F` (stereo not shown) [Compound 306, 2-[6-chloro-1-(2,3-difluoro-4-methylphenyl)-1,3,4,9-tetrahydro-2H-pyrido[3,4-b]indol-2-yl]-N,N-dimethylpyrimidin-4-amine] reads 20 nM; that for `Fc1cnc(N2CCc3c([nH]c4cc(F)c(Cl)cc34)C2c2ccc(F)nc2)nc1` (stereo not shown) [Compound 47, 6-chloro-7-fluoro-1-(6-fluoropyridin-3-yl)-2-(5-fluoropyrimidin-2-yl)-2,3,4,9-tetrahydro-1H-pyrido[3,4-b]indole], 140 nM. The result for `COC(=O)c1nc(N2CCc3c([nH]c4ccc(Cl)cc34)[C@@H]2c2ccc(C)c(F)c2F)nc(C(F)(F)F)n1` [Compound 504, methyl 4-[(1S)-6-chloro-1-(2,3-difluoro-4-methylphenyl)-1,3,4,9-tetrahydro-2H-pyrido[3,4-b]indol-2-yl]-6-(trifluoromethyl)-1,3,5-triazine-2-carboxylate] reads 30.6 nM; that for `Cc1nc(N2CCc3c([nH]c4ccc(Cl)cc34)[C@@H]2c2cnc(N3CCOCC3)nc2)nc(C(F)(F)F)n1` [Compound 466, (1S)-6-chloro-2-[4-methyl-6-(trifluoromethyl)-1,3,5-triazin-2-yl]-1-[2-(morpholin-4-yl)pyrimidin-5-yl]-2,3,4,9-tetrahydro-1H-pyrido[3,4-b]indole], 0.9 nM; that for `Cc1cnn(-c2ccc3[nH]c4c(c3c2)CCN(c2nc(C(F)(F)F)cc(C(F)(F)F)n2)C4c2cnc(N3CCOCC3)nc2)n1` (stereo not shown) [Compound 483, 2-[4,6-bis(trifluoromethyl)pyrimidin-2-yl]-6-(4-methyl-2H-1,2,3-triazol-2-yl)-1-[2-(morpholin-4-yl)pyrimidin-5-yl]-2,3,4,9-tetrahydro-1H-pyrido[3,4-b]indole], 8.5 nM. The compound `NS(=O)(=O)c1ccc(C2c3[nH]c4cc(F)c(Cl)cc4c3CCN2c2nccc(C(F)(F)F)n2)cc1` (stereo not shown) [Compound 115, 4-{6-chloro-7-fluoro-2-[4-(trifluoromethyl)pyrimidin-2-yl]-2,3,4,9-tetrahydro-1H-pyrido[3,4-b]indol-1-yl}benzene-1-sulfonamide] came in with an IC50 of 9.4 nM. With `OCCOCc1ccc(C2c3[nH]c4cc(F)c(Cl)cc4c3CCN2c2nccc(C(F)(F)F)n2)cc1` (stereo not shown) [Compound 223, 2-[(4-{6-chloro-7-fluoro-2-[4-(trifluoromethyl)pyrimidin-2-yl]-2,3,4,9-tetrahydro-1H-pyrido[3,4-b]indol-1-yl}phenyl)methoxy]ethan-1-ol] the figure was 2 nM; with `Cc1nc(C)nc(N2CCc3c([nH]c4ccc(Cl)cc34)C2c2ccc(C#N)cc2F)n1` (stereo not shown) [Compound 453, 4-[6-chloro-2-(4,6-dimethyl-1,3,5-triazin-2-yl)-2,3,4,9-tetrahydro-1H-pyrido[3,4-b]indol-1-yl]-3-fluorobenzonitrile], 4.9 nM. `CN(C)c1ncc(C2c3[nH]c4cc(F)c(Cl)cc4c3CCN2c2nccc(C(F)(F)F)n2)cn1` (stereo not shown) [Compound 95, 5-{6-chloro-7-fluoro-2-[4-(trifluoromethyl)pyrimidin-2-yl]-2,3,4,9-tetrahydro-1H-pyrido[3,4-b]indol-1-yl}-N,N-dimethylpyrimidin-2-amine] returned an IC50 of 4.6 nM.

On to `Cc1nc(C)nc(N2CCc3c([nH]c4ccc(Cl)cc34)C2c2cnc(N3CC4CC3CO4)nc2)n1` (stereo not shown) [Compound 336, 6-chloro-2-(4,6-dimethyl-1,3,5-triazin-2-yl)-1-[2-(2-oxa-5-azabicyclo[2.2.1]heptan-5-yl)pyrimidin-5-yl]-2,3,4,9-tetrahydro-1H-pyrido[3,4-b]indole], for which 52.2 nM corresponded to half-maximal inhibition (IC50). `Fc1c(Cl)ccc2[nH]c3c(c12)CCN(c1ncc(Cl)cn1)C3c1ccc(Cl)cc1` (stereo not shown) [Compound 27, 6-chloro-1-(4-chlorophenyl)-2-(5-chloropyrimidin-2-yl)-5-fluoro-2,3,4,9-tetrahydro-1H-pyrido[3,4-b]indole] gave an IC50 of 17.6 nM.

As for `Cc1ccc(C2c3[nH]c4ccc(Cl)cc4c3CCN2c2nccc(N(C)C)n2)cc1` (stereo not shown) [Compound 307, 2-[6-chloro-1-(4-methylphenyl)-1,3,4,9-tetrahydro-2H-pyrido[3,4-b]indol-2-yl]-N,N-dimethylpyrimidin-4-amine], half-maximal inhibition (IC50) required 99.2 nM.

`Cc1nc(N2CCc3c([nH]c4ccc(Cl)cc34)C2c2ccc(N3CCOCC3)nc2)ncc1F` (stereo not shown) [Compound 365, 6-chloro-2-(5-fluoro-4-methylpyrimidin-2-yl)-1-[6-(morpholin-4-yl)pyridin-3-yl]-2,3,4,9-tetrahydro-1H-pyrido[3,4-b]indole] had an IC50 of 8 nM. The compound `Cc1cnn(-c2ccc3[nH]c4c(c3c2)CCN(c2nc(C(F)(F)F)nc(C(F)(F)F)n2)[C@H]4c2ccc(C)c(F)c2F)c1` [Compound 529, (1S)-2-[4,6-bis(trifluoromethyl)-1,3,5-triazin-2-yl]-1-(2,3-difluoro-4-methylphenyl)-6-(4-methyl-1H-pyrazol-1-yl)-2,3,4,9-tetrahydro-1H-pyrido[3,4-b]indole] gave an IC50 of 4.1 nM. The result for `Cc1ccc(C2c3[nH]c4cc(F)c(Cl)cc4c3CCN2c2nc(C)c(F)c(C)n2)cc1` (stereo not shown) [Cpd 106, 6-chloro-7-fluoro-2-(5-fluoro-4,6-dimethylpyrimidin-2-yl)-1-(4-methylphenyl)-2,3,4,9-tetrahydro-1H-pyrido[3,4-b]indole] reads 7.4 nM.

`N#Cc1ccnc(N2CCc3c([nH]c4cc(F)c(Cl)cc34)C2c2cccc(F)c2F)n1` (stereo not shown) [Compound 68, 2-[6-chloro-1-(2,3-difluorophenyl)-7-fluoro-1,3,4,9-tetrahydro-2H-pyrido[3,4-b]indol-2-yl]pyrimidine-4-carbonitrile] gave an IC50 of 8.8 nM.

Compound `CN1CCN(c2nc(N3CCc4c([nH]c5ccc(Cl)cc45)[C@@H]3c3cnc(N4CCOCC4)nc3)nc(C(F)(F)F)n2)CC1` [Compound 478, (1S)-6-chloro-2-[4-(4-methylpiperazin-1-yl)-6-(trifluoromethyl)-1,3,5-triazin-2-yl]-1-[2-(morpholin-4-yl)pyrimidin-5-yl]-2,3,4,9-tetrahydro-1H-pyrido[3,4-b]indole] had an IC50 of 9.5 nM. The result for `Cc1nc(N2CCc3c([nH]c4ccc(Cl)c(F)c34)C2c2ccc(/C=C/CCO)cc2)ncc1F` (stereo not shown) [Compound 241, (3E)-4-{4-[6-chloro-5-fluoro-2-(5-fluoro-4-methylpyrimidin-2-yl)-2,3,4,9-tetrahydro-1H-pyrido[3,4-b]indol-1-yl]phenyl}but-3-en-1-ol] reads 3.4 nM; that for `FC1(F)CN(c2ccnc(N3CCc4c([nH]c5ccc(Cl)cc45)[C@@H]3c3cnc(N4CCOCC4)nc3)n2)C1` [Compound 456, (1S)-6-chloro-2-[4-(3,3-difluoroazetidin-1-yl)pyrimidin-2-yl]-1-[2-(morpholin-4-yl)pyrimidin-5-yl]-2,3,4,9-tetrahydro-1H-pyrido[3,4-b]indole], 17.1 nM. Compound `COCCOc1ncc([C@H]2c3[nH]c4ccc(Cl)cc4c3CCN2c2nc(C(F)(F)F)nc(C(F)(F)F)n2)cn1` [Compound 534, (1S)-2-[4,6-bis(trifluoromethyl)-1,3,5-triazin-2-yl]-6-chloro-1-[2-(2-methoxyethoxy)pyrimidin-5-yl]-2,3,4,9-tetrahydro-1H-pyrido[3,4-b]indole] returned an IC50 of 0.8 nM. With `FC(F)(F)c1ccnc(N2CCc3c([nH]c4ccc(Cl)cc34)C2c2ccc(Cl)nc2Cl)n1` (stereo not shown) [Compound 319, 6-chloro-1-(2,6-dichloropyridin-3-yl)-2-[4-(trifluoromethyl)pyrimidin-2-yl]-2,3,4,9-tetrahydro-1H-pyrido[3,4-b]indole] the figure was 82.1 nM. The result for `Fc1c(Cl)ccc2[nH]c3c(c12)CCN(c1nccc(C(F)(F)F)n1)[C@@H]3c1ccc(Cl)cc1` [Compound 181, (1R)-6-chloro-1-(4-chlorophenyl)-5-fluoro-2-[4-(trifluoromethyl)pyrimidin-2-yl]-2,3,4,9-tetrahydro-1H-pyrido[3,4-b]indole] reads 177 nM.
